Several values for one entry are separate records, joined by “and”; a condition that tells them apart may be missing. Identical values can stand only once. Like-named read-outs stand apart in the source and are kept apart here.
Assays:
[1] = system: laboratory adapted HIV strain (NL4-3); experiment: microbe, parasite or virus in culture
Description: Briefly, the antiviral activity of PL-100 was determined using MT4 cells infected with a laboratory adapted HIV strain (NL4-3). For comparison, seven approved protease inhibitors (PIs) were tested in parallel.
The effect of 40% human serum on the antiviral activity of PL-100 in MT4 cells infected with NL4-3 was therefore evaluated.

[2] = Plasma concentration after single oral dose in rats (in vivo cleavage of the phosphate group); design: species or system male Sprague-Dawley rats; conditions: 50 mg/Kg po, vehicle Mix, 3 rats
Description: To assess the extent of in vivo cleavage of the phosphate group from the putative compounds, PL-100, PL-462 (based on PL-100), PL-337 and PL-515 (based on PL-337) compounds were administered po (per os, (i.e., by mouth)) (50 mg/kg) to male Sprague-Dawley rats and their plasma concentration measured at different time intervals post-administration.
All test articles (PL-100, PL-462, PL-337 and PL-515) were prepared in different vehicle at the final concentration of 25 mg/mL. The vehicle composition is as follows: (1) 20% ethanol; 50% propylene glycol; 0.05% w/v Tween 20 and water (Mix); (2) PBS buffer (PBS).
Test articles were administered to male Sprague-Dawley rats at a single oral dose of 50 mg/kg. Each article was tested in three rats. Blood samples (0.2-0.3 mL) were collected at the post-dose time of 10, 20, 40, 60, 120, 180 and 360 minutes. The harvested blood was centrifuged to isolate plasma. The resulting plasma was separated and stored at −70° C.
Plasma samples together with standards and quality control samples were treated to precipitate proteins, then analyzed by HPLC-MS, for the presence of PL-462, PL-100, PL-515 and PL-337.

[3] = system: 63 HIV isolates with reduced susceptibility to all approved protease inhibitors; format: cell-based, HIV-1; conditions: for % viral strains with EC95s ≦ 200 ng/ml / % viral strains with EC95s ≦ 630 ng/ml: protein-binding adjusted EC95
Text: The cross-resistance profile of PL-100 against 63 HIV isolates with reduced susceptibility to all approved protease inhibitors (P is) including atazanavir was thus tested.
The panel of 63 viral strains was selected based on the following rationale: 1) High-level loss of susceptibility to specific P is; 2) High-level loss of susceptibility to multiple P is; 3) Good representation of the primary mutations. This panel consists of resistant viruses from highly PI-experienced patients with high-level PI resistance.
The genotype of these viruses encompasses a wide variety of mutational patterns. We particularly looked for the following primary PI mutations: D30N, L33F/I, M461/L, G48V, I50L/V, V82A/F/S/T, I84V and L90M as defined by the International AIDS Society (IAS)-USA.
The dark cells indicate a […], the grey cells indicate FC values of 2.5≦FC<10 and the white cells indicate a FC value of; 0≦FC<2.5. The results of cross-resistance profile are further illustrated in the graph of FIG. 1.
In the cross-resistance profiling studies against the 63 resistant strains mentioned herein, EC95 of PL-100 was determined against each strain. The median EC95 represents the concentration required to inhibit 95% of the viral replication of 50% diverse drug-resistant HIV-1 variants tested. Table 8 illustrates the percentage of resistant strains tested with protein-binding adjusted EC95s≦200 ng/ml. The resistant strains are grouped by the number of primary mutations they have.
The EC95 of PL-100 was determined against each of the 63 resistant strains indicated herein. Table 9 illustrates the percentage of resistant strains tested with protein-binding adjusted EC95s≦630 ng/ml. The resistant strains are grouped by the number of primary mutations they have.

[4] = Effect of CYP450 inhibitors on metabolism of HIV-1 protease inhibitors in human liver microsomes; format: in vitro ADME
Description: The effect of CYP450 inhibitors on the metabolism of HIV-1 anti-protease was tested in human liver microsomes.

[5] = Pharmacokinetics of PL-100 and PL-461 in rats; format: in vivo, Sprague Dawley rats (Rattus norvegicus); conditions: 5 mg/kg i.v., female rats
Description: Animal tested are Sprague Dawley rats (species Rattus norvegicus) of 6-7 weeks old at the start of dosing and were obtained from Charles River (Montreal, Canada). The study usually comprises about 6 animals per groups. […] The rats were fasted 3 h. before dosing and 3 h. after dosing. The formulations are prepared as indicated below. The solutions are stable at room temperature over a week and are covered with aluminum foil to avoid lights. […] The dosing volume for all formulations is 2 mL per kg body weight. Blood sample was collected at 15 min, 30 min, 45 min, 1 […] after the dosing. Blood samples were centrifuged to separate the plasma and separated plasma samples were placed into cryovials and frozen at -80° C. for further analysis. Plasma samples together with standards and quality control samples were treated by protein precipitation and then analyzed by HPLC-MS. […] The PK profile was obtained by administration of the test drugs; PL-100 and PL-461 in rats. […] The pharmacokinetic parameters of PL-100 and PL-461 in rats** was compared.

CYP3A4/5 = experiment: Inhibition of CYP450 sub-families; format: biochemical; conditions: FIG. 10
[6] = 63 diverse, multi-PI-resistant strains
[7] = 63 diverse, multi-PI-resistant strains, FC in IC50 vs NL-4.3
[8] = strains with 0 primary PI mutations
[9] = strains with 1 primary PI mutation
[10] = strains with 2 primary PI mutations
[11] = strains with 3 primary PI mutations
[12] = strains with 4 primary PI mutations
[13] = strains with 5-6 primary PI mutations
[14] = Sprague Dawley, rat, plasma, iv

Compound: COC(=O)N[C@H](C(=O)NCCCC[C@@H](CO)N(CC(C)C)S(=O)(=O)c1ccc(N)cc1)C(c1ccccc1)c1ccccc1 [PL-100, (1S,5S)-(1-{5-[(4-amino-benzenesulfonyl)-isobutyl-amino]-6-hydroxy-hexylcarbamoyl}-2,2-diphenyl-ethyl)-carbamic acid methyl ester]
- EC50 ([1]; Human immunodeficiency virus 1, NL43, MT4, MT4 cells infected with NL4-3): 16 nM
- EC50 ([1]; Human immunodeficiency virus 1, NL43, MT4, culture condition 10% FBS): 18 nM
- EC50 ([1]; Human immunodeficiency virus 1, NL43, MT4, culture condition 10% FBS + 40% human serum): 100 nM
- Fold Change in EC50 ([1]; culture condition 10% FBS): 1.0
- Fold Change in EC50 ([1]; culture condition 10% FBS + 40% human serum): 6 and 5.9
- SI (CC50/EC50) ([1]; ratio of cytotoxicity (CC50) to antiviral activity (EC50)): 2,063
- AUC [2]: 0.675 ± 0.171 μg/hr * ml
- Cmax [2]: 498 ± 203 nM
- Tmax [2]: 40 ± 16 min
- % FC < 2.5 [3, 6]: 37%
- % FC < 10 [3, 6]: 76%
- % FC > 50 [3, 6]: 3%
- Mean FC [3, 7]: 8.7
- Median FC [3, 7]: 3.6
- % viral strains with EC95s ≦ 200 ng/ml [3, 8]: 100%
- % viral strains with EC95s ≦ 630 ng/ml [3, 8]: 100%
- % viral strains with EC95s ≦ 200 ng/ml [3, 9]: 100%
- % viral strains with EC95s ≦ 630 ng/ml [3, 9]: 100%
- % viral strains with EC95s ≦ 200 ng/ml [3, 10]: 36%
- % viral strains with EC95s ≦ 630 ng/ml [3, 10]: 82%
- % viral strains with EC95s ≦ 200 ng/ml [3, 11]: 23%
- % viral strains with EC95s ≦ 630 ng/ml [3, 11]: 55%
- % viral strains with EC95s ≦ 200 ng/ml [3, 12]: 0%
- % viral strains with EC95s ≦ 630 ng/ml [3, 12]: 29%
- % viral strains with EC95s ≦ 200 ng/ml [3, 13]: 0%
- % viral strains with EC95s ≦ 630 ng/ml [3, 13]: 0%
- Fold change in IC50 vs. Reference ([3]; sample O3-129578, 46I/82T/84V, panel ID 11): 1.2
- Fold change in IC50 vs. Reference ([3]; sample O3-129585, 48V/54V/82A/90M, panel ID 26): 1.9
- Fold change in IC50 vs. Reference ([3]; sample O3-129586, 30N/88D/90M, panel ID 28): 1.4
- Fold change in IC50 vs. Reference ([3]; sample O3-148709 (non-B subtype), 32I/47A, panel ID 1): 1.4
- Fold change in IC50 vs. Reference ([3]; sample O3-1129583, 84V/90M, panel ID 21): 2.3
- Fold change in IC50 vs. Reference ([3]; sample O4-148712, 46I/88S, panel ID 122): 0.8
- Fold change in IC50 vs. Reference ([3]; sample O4-148712, 46I/88S, panel ID 124): 1.1
- Fold change in IC50 vs. Reference ([3]; sample O4-148713, 46I/88S, panel ID 123): 0.4
- Fold change in IC50 vs. Reference ([3]; sample O4-148716, 33F/54L/88S/90M, panel ID 10): 1.7
- Fold change in IC50 vs. Reference ([3]; sample O4-148721, 32I/46I/47V/50L, panel ID 127): 1.1
- Fold change in IC50 vs. Reference ([3]; sample O4-148725, 32I/46L/47V/84V, panel ID 53): 0.6
- Fold change in IC50 vs. Reference ([3]; sample O4-148739, 48V/54V/82A/90M, panel ID 138): 1.1
- Fold change in IC50 vs. Reference ([3]; sample O4-148742, 46L/48V/82A/84V, panel ID 94): 1.2
- Fold change in IC50 vs. Reference ([3]; sample O4-148748, 37S/41K/70E, panel ID 115): 0.9
- Fold change in IC50 vs. Reference ([3]; sample O4-148749, 37T/41K/70E, panel ID 151): 1.9
- Fold change in IC50 vs. Reference ([3]; sample O4-148751, 54V/84V, panel ID 171): 0.8
- Fold change in IC50 vs. Reference ([3]; sample O4-148752, 54V/84V, panel ID 152): 1.2
- Effect of CYP450 inhibitor on metabolism ([4]; with ketoconazole and sulfaphenazole (FIG. 6)): able to increase the PK of PL-100
- Effect of CYP450 inhibitor on metabolism ([4]; with ritonavir (FIG. 6)): most effective combination
- Cl_F [5]: 58.3 mL/min/kg
- Tlast [5]: 6 h
- Vz_F [5]: 6.1 L/kg
- λz [5]: 0.52 h⁻¹
- concentration at 6 hr ([5]; Sprague Dawley, rat, plasma, intravenous, read-out: Clast): 44 ng/mL
- AUC(0-inf) [5, 14]: 1430 ng·h/mL
- AUC(0-t) [5, 14]: 1370 ng·h/mL
- Cmax [5, 14]: 1800 ng/mL
- Tmax [5, 14]: 6 min
- half-life ([5]; Sprague Dawley, rat, plasma, iv, read-out: T½ (converted)): 72 min
- Inhibition of CYP3A4/5 (CYP3A4/5): inhibits CYP3A4/5

Reference: patent publication US20060287316A1, “METHOD FOR IMPROVING PHARMACOKINETICS OF PROTEASE INHIBITORS AND PROTEASE INHIBITOR PRECURSORS” (priority 2005, published 2006)
